Experimental data from patent publication US20240285624A1, “ERK1/2 OR SHP2 INHIBITORS AND FLT3 INHIBITORS COMBINATION THERAPY” (Erasca, Inc., priority 2021, published 2024).

Key:
[1] = test system: ERK1/2 phosphorylation in MOLM-14 cells; test: Western blot of phosphorylated ERK1/2; type: cell-based; conditions: compound 2 alone, 4 hours, relative to DMSO treated control cells
Method: (§1) Western blotting: Cells were lysed on ice for 10 minutes with Thermo Fisher RIPA lysis buffer with protease and phosphatase inhibitors. The cells were centrifuged at 4° for 10 minutes with a microcentrifuge. The supernatant was transferred to pre-chilled microcentrifuge tube and protein concentration of the lysate was measured using BCA method. Cell lysate supematants of equal-amount of proteins were used for immunoblotting.
(§2) FIG. 3A is a Western blot showing compound 2 and gilteritinib combination induced downregulation of ERK1/2 phosphorylation in MOLM-14 cells. FIG. 3B is a bar plot quantifying the results of […]. The cell lines, MOLM14 and MV-4-11 were split onto a 6 well plate and treated with compound 2 and gilteritinib alone, and in combination as indicated (FIGS. 3A/B and 4A/B). After 4 hours treatment, cells were lysed and immunoblotted for phosphorylated ERK1/2. […] The phosphorylated ERK1/2 bands were quantified by using Bio-Rad Image Lab software and normalized by total ERK.

[2] = test system: ERK1/2 phosphorylation in MV-4-11 cells; test: Western blot of phosphorylated ERK1/2; type: cell-based; conditions: compound 2 alone, 4 hours, relative to DMSO treated control cells
Method: as §1, §2
FIG. 4A is a Western blot showing compound 2 and gilteritinib combination induced downregulation of ERK1/2 phosphorylation in MV-4-11 cells. FIG. 4B is a bar plot quantifying the results of […]. […] The phosphorylated ERK1/2 bands were quantified by using Bio-Rad Image Lab software and normalized by total ERK.

[3] = test system: MOLM-13 subcutaneous CDX model; test: In vivo tumor growth, FLT3-ITD mutated AML subcutaneous CDX model MOLM-13; set-up: species or system Balb/c nude mice; conditions: compound 2 15 or 30 mg/kg PO QD; groups terminated on treatment day 12
Method: The vehicle/control article, 100 mM acetic acid in deionized water, with pH adjustment to 4.8-5.0, was prepared and stored under ambient conditions throughout the 42-day administration in mice.
The test article, compound 2, was freshly prepared in vehicle of 100 mM acetic buffer weekly and stored under ambient conditions. The combination agent gilteritinib was prepared weekly in vehicle of 0.5% Methyl Cellulose & 0.1% Tween 80 Solution weekly and stored under ambient conditions.
Female Balb/c nude mice were between 6-8 weeks of age at the time of implantation. Mice were hosted in a special pathogen-free (SPF) environment of the vivarium facility and acclimated to their new environment for at least 3 days prior to initiation of any experiments according to IACUC protocol.
MOLM-13 was AML cell line that harbored a FLT3-ITD mutation. MOLM-13 cells were cultured in medium containing RPMI1640 plus 10% Fetal Bovine Serum (FBS) and 1% Antibiotic-Antimycotic (AA), at 37° C. in an atmosphere of 5% CO2 in air. The medium was renewed every 2 to 3 days and tumor cells were routinely sub-cultured at a confluence of 80-90% by trypsin-EDTA. Cells growing in an exponential growth phase were harvested and counted for inoculation. […] Animal health and tumor growth were monitored daily. Tumor volume was measured twice a week by caliper when tumors were palpable and measurable. […]

COCOC[C@H]1C[C@H]2COc3c(Sc4cnc(N5CCC6(CC5)CO[C@@H](C)[C@H]6N)c(CO)n4)ccnc3N2C1 [compound 2, (3-((3S,4S)-4-amino-3-methyl-2-oxa-8-azaspiro[4.5]decan-8-yl)-6-(((6aS,8S)-8-((methoxymethoxy)methyl)-6a,7,8,9-tetrahydro-6H-pyrido[3,2-b]pyrrolo[1,2-d][1,4]oxazin-4-yl)thio)pyrazin-2-yl)methanol]
inhibition of ERK1/2 phosphorylation (immunoblot) [1]: about 30%
inhibition of ERK1/2 phosphorylation (immunoblot) [2]: about 50%
tumor growth under monotherapy (group termination) [3]: rapid tumor growth
